Experiments:
[1] = system: bovine alveolar macrophages; test: Phospholipidosis assay (HCS LipidTox, Incucyte); assay type: cell-based; details: Bos taurus, Macrophage
From the text: The second immunomodulation in vitro assay evaluated the potential for phospholipidosis with the compounds of the invention in bovine alveolar macrophages. This assay is utilized to determine cellular uptake of the compounds of the invention in relevant bovine and murine cell types. This assay utilized Invitrogen's commercially available HCS LipidTox detection kit with an Incucyte real time fluorescence reader to observe variations in EC50 and phospholipidosis profiles based on compound concentrations. Murine intraperitoneal macrophages were also used in the same assay to evaluate species variability for potential correlation with mouse efficacy results. The combination of the bovine whole blood assay and phospholipidosis assays enabled rank ordering for progression into in vivo testing in the murine challenge model.

Lipophilicity (logP) = assay type: physicochemical
From the text: The lipophilicity of an organic compound can be described by a partition coefficient, log P, which can be defined as the ratio of the concentration of the unionized compound at equilibrium between organic and aqueous phases. Generally speaking, more lipophilic compounds are less soluble in aqueous media. A negative value for log P means the compound has a higher affinity for the aqueous phase (hydrophilic); when log P=0 the compound is equally partitioned between the lipid and aqueous phases; a positive value for log P denotes a higher concentration in the lipid phase (lipophilic). Lipophilicity is a major determining factor in a compound's absorption, distribution in the body, penetration across vital membranes and biological barriers, metabolism and excretion. The compounds of the invention are lipophilic (log P˜0.503 to 5.96) which aid in their transport and absorption into respiratory tissues, e.g., lungs.

LCN2 = LCN2 (Bos taurus, UniProt A0AAA9TIZ6); test: Surface plasmon resonance (SPR) drug/target affinity; assay type: binding; details: biologically relevant pH
LCN2, sequence (A0AAA9TIZ6 entry or part of it): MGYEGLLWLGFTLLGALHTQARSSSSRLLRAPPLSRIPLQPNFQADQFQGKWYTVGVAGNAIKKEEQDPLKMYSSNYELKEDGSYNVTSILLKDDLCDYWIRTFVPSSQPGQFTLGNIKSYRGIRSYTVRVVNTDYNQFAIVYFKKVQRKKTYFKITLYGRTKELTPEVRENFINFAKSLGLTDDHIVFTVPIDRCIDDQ
From the text: (§1) In order to add further clarity to binding partner identification, surface plasma resonance (SPR) technology was used. […] These targets were unique to this drug class compared to gamithromycin, a macrolide antibiotic used in the treatment of BRD. Both targets fit the paradigm that the immunological mechanism of action is linked to the pathways that are both of key importance as being dysregulated in BRD and modulated by M9. LCN2 is expressed by neutrophils upon activation of toll-like receptors (TLRs) and is a component of the innate inflammatory response. […] Very little information exists to date on SLAMF9. It is a member of a family of signal adaptor proteins that is thought to lack signal transduction capabilities.
(§2) KD is the equilibrium dissociation constant that was used to present the drug/target affinity. The identified targets associated with drug were measured by surface plasmon resonance (SPR) to define the KD.

LPO = LPO (Bos taurus, UniProt P80025); test: as above; assay type: binding
From the text: as §1, §2

NLRX1 = test: as above; assay type: binding
From the text: as §1, §2

SLAMF9 = SLAMF9 (Bos taurus, UniProt E1BNF9); test: as above; assay type: binding; details: biologically relevant pH
SLAMF9, sequence (E1BNF9 entry or part of it): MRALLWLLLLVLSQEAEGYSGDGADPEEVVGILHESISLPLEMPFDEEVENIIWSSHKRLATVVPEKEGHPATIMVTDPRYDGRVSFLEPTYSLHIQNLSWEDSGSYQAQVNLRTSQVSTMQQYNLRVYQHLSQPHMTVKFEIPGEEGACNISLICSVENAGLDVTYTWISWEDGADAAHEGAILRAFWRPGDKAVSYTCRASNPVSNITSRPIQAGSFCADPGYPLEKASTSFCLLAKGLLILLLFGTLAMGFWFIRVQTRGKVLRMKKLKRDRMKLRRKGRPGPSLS
From the text: as §1, §2

TLR4 = test: as above; assay type: binding
From the text: as §1, §2

[2] = system: M. haemolytica (OSU-012103-BHI); details: 10 mg/kg, separate study; saline control 31%
[3] = Plasma pharmacokinetics in cattle; details: following a 10 mg/kg dose, separate PK study
Procedure: The primary clinical endpoint for efficacy was treatment failure/success over a 14-day observation period. Clinically normal beef calves (150-200 kg) at moderate risk for BRD were dosed on arrival to the feedlot. Animals (N=114/group) received saline (T01), 5 mg/kg M9 (T02), 10 mg/kg M9 (T03) or Zactran (T04).

E. coli = test: In-vitro MIC model (CLSI broth micro-dilution); details: Escherichia coli, ATCC25922, read-out: Comparative MIC's, E. coli ATCC 25922
[4] = system: M. haemolytica (OSU-012103-BHI); test: In vivo bovine M. haemolytica intratracheal lung infection challenge model; details: for Mortality/Euthanization Yes, % / Mortality/Euthanization Yes, Number / Mortality/Euthanization No, % / Mortality/Euthanization No, Number: positive control; for Mortality/Euthanization No, % / Mortality/Euthanization No, Number: surviving animals; for Significance to T01, mortality: p≤0.2
[5] = Table 7 study, T04: 10 mg/kg subcutaneous
[6] = Table 9 study, T05: 10 mg/kg subcutaneous

CCCNC[C@]1(O)[C@H](C)O[C@@H](O[C@H]2[C@H](C)[C@@H](O[C@@H]3O[C@H](C)C[C@H](NC)[C@H]3O)[C@](C)(O)C[C@@H](C)CN[C@H](C)[C@@H](O)[C@](C)(O)[C@@H](CC)OC(=O)[C@@H]2C)C[C@@]1(C)OC [Example M9, (2R,3S,4R,5R,8R,10R,11R,12S,13S,14R)-2-ethyl-3,4,10-trihydroxy-13-(((2R,4R,5S,6S)-5-hydroxy-4-methoxy-4,6-dimethyl-5-((propylamino)methyl)-tetrahydro-2H-pyran-2-yl)oxy)-11-(((2S,3R,4S,6R)-3-hydroxy-6-methyl-4-(methylamino)tetrahydro-2H-pyran-2-yl)oxy)-3,5,8,10,12,14-hexamethyl-1-oxa-6-azacyclopentadecan-15-one, reference compound]
EC50 [1]: 3.74 mM
logP (Lipophilicity (logP)): 2.2
drug/target binding, LCN2 (LCN2): direct binding targets
Interaction type (LPO): Indirect
drug/target binding, NLRX1 (NLRX1): Indirect
drug/target binding, SLAMF9 (SLAMF9): direct binding targets
Interaction KD (M) (TLR4): Indirect
lung lesions [2]: 20%
maximum plasma concentration [3]: 5 µg/mL
MIC (E. coli): > 64 mg/L
Mortality ([4]; 10 mg/kg, separate study, saline control 38.9%): 13%
Mortality ([4]; T02: 10 mg/kg subcutaneous Day -1, M. haemolytica challenge Day 0, 6 animals): 1/6
Mortality ([4]; T04: 10 mg/kg subcutaneous Day -1, No challenge, 6 animals): 0/6
Significance at .20 level to T01, lung lesions ([4]; Table 6 study, T04: 10 mg/kg subcutaneous): Yes
Mortality/Euthanization Yes, % [4, 5]: 12.5%
Mortality/Euthanization Yes, Number [4, 5]: 3
Mortality/Euthanization No, % [4, 5]: 87.5%
Mortality/Euthanization No, Number [4, 5]: 21
Significance to T01, mortality [4, 5]: Yes
Significance at .20 level to T01, lung lesions ([4]; Table 8 study, T05: 10 mg/kg subcutaneous): yes
Mortality/Euthanization Yes, % [4, 6]: 13.0%
Mortality/Euthanization Yes, Number [4, 6]: 3
Mortality/Euthanization No, % [4, 6]: 87.0%
Mortality/Euthanization No, Number [4, 6]: 20
Significance to T01, mortality [4, 6]: Yes

From patent US12295936B2, “Immunomodulating urea azalides” (Zoetis Services LLC, priority 2020, dated 2025)
